In patent US10800791B2, “Triazole ACC inhibitors and uses thereof” (Gilead Apollo, LLC, priority 2015, dated 2020):
Values after ≈ are worked out from the molar mass of the structure shown. Where two headings read alike, the source gives them in different places.

Experiments:
[1] = tested on: Phytophthora capsici (Pc); test: Growth inhibition assay of fungal pathogens, Pc; format: cell-based; conditions: 48 h
Outline: (§1)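 Inhibition percentages reflect 48 h OD600 and visual scores relative to a 2% DMSO control. Test concentrations were 50, 10, 2 ppm or 2, 0.4, 0.08 ppm final, applied to spores in 17% V8 medium.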

Botrtyis cinerea (Bc) = test: Growth inhibition assay of fungal pathogens, Bc; format: cell-based; conditions: 48 h
Outline: as §1

Rhizoctonia solani (Rs) = test: Growth inhibition assay of fungal pathogens, Rs; format: cell-based; conditions: 48 h
[2] = tested on: Fusarium virguliforme (Fv); test: Growth inhibition assay of fungal pathogens, Fv; format: cell-based; conditions: 48 h
Outline: as §1

Septoria tritici (St) = test: Growth inhibition assay of fungal pathogens, St; format: cell-based; conditions: Zymoseptoria tritici, 48 h
Outline: as §1

[3] = tested on: Fusarium moniliforme (Fm); test: Growth inhibition assay of fungal pathogens, Fm; format: cell-based; conditions: for IC90: Fusarium verticillioides, 48 h, read-out: Concentration at 90% Inhibition Fm
Outline: as §1

C. parapsilosis = test: Antifungal Activity Assay (broth microtiter MIC), C. parapsilosis; format: cell-based, Candida parapsilosis; conditions: Lodderomyces parapsilosis, ATCC22019, 48 h
Outline: (§2)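 Broth microdilution per CLSI M27-A3 in RPMI 1640+MOPS, inoculum 2.5×10^3 CFU/mL final from overnight Sabouraud dextrose agar cultures at 35° C. Compounds diluted from DMSO stock to 128 μg/mL in water. MIC read visually versus growth control at 48 h.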

fungal (fACC2) = fungal (fACC2) (UniProt Q00955); conditions: read-out: fACC2 (in vitro ACC2 Inhibition Assay, IC50), ADP-Glo, 5 nM ACC2, 20 μM ATP, 20 μM acetyl-CoA
Sequence of fungal (fACC2) (Q00955 whole entry): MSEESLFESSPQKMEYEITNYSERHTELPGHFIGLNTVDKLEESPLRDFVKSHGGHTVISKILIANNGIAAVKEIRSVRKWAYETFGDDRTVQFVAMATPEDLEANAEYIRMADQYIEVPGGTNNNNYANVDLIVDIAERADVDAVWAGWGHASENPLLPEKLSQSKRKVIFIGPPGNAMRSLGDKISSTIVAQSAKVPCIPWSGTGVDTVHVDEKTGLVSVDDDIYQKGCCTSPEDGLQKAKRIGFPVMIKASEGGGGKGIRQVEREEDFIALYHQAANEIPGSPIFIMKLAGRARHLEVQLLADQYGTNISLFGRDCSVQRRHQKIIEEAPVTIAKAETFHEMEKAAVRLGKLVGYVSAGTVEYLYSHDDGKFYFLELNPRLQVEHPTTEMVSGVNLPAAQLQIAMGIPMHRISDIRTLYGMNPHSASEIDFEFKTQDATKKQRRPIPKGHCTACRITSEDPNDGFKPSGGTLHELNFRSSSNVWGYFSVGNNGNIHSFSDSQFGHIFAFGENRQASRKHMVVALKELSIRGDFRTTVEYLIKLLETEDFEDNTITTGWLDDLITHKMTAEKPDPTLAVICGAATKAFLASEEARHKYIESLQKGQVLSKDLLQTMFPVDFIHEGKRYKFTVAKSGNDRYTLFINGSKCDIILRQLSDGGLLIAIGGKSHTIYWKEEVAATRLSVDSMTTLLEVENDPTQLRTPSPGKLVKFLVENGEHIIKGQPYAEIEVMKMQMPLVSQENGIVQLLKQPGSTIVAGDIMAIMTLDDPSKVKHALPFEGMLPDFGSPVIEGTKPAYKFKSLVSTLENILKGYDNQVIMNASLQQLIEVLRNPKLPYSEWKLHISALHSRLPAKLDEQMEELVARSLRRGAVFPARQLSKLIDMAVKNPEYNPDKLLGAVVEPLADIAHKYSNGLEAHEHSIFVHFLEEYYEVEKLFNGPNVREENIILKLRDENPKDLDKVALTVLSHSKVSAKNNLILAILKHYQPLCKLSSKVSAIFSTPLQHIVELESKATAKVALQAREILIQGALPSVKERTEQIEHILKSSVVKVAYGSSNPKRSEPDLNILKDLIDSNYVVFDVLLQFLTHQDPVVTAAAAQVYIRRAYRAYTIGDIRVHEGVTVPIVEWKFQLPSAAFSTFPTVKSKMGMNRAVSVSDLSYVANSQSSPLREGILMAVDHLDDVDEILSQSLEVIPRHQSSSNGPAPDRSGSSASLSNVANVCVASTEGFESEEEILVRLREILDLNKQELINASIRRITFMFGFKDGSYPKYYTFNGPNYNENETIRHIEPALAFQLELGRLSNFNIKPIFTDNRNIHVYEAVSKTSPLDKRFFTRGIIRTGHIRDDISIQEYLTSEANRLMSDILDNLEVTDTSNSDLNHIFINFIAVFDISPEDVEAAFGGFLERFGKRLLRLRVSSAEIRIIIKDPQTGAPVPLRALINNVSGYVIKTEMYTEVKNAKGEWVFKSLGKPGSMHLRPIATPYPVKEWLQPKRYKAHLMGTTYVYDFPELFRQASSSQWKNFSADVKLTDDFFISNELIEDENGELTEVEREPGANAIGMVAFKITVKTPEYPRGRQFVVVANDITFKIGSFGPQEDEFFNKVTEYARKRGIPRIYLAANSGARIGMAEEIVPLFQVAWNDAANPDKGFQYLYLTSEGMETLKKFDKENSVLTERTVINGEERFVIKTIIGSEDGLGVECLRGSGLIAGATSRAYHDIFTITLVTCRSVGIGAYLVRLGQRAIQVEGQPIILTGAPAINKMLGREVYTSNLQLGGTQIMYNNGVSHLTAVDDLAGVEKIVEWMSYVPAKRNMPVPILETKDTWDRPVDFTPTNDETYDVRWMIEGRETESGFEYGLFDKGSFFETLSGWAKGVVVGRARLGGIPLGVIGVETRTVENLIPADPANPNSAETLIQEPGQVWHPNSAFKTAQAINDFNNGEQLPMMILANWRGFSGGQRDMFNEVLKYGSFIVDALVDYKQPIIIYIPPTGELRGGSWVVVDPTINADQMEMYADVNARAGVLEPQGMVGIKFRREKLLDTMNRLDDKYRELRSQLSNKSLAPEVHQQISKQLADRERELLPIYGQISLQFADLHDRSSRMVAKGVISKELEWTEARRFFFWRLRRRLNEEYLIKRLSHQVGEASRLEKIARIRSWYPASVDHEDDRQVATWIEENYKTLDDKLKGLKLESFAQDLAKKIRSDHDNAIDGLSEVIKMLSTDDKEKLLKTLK

C. krusei = test: Antifungal Activity Assay (broth microtiter MIC), C. krusei; format: cell-based, Candida krusei; conditions: Pichia kudriavzevii, ATCC6258, 48 h
Outline: as §2

human (hACC2) = human (hACC2) (Homo sapiens, UniProt O00763); test: In vitro ACC inhibition assay (ADP-Glo), hACC2; format: biochemical; conditions: 5 nM ACC2, 20 μM ATP, 20 μM acetyl-CoA
Sequence of human (hACC2) (O00763 whole entry): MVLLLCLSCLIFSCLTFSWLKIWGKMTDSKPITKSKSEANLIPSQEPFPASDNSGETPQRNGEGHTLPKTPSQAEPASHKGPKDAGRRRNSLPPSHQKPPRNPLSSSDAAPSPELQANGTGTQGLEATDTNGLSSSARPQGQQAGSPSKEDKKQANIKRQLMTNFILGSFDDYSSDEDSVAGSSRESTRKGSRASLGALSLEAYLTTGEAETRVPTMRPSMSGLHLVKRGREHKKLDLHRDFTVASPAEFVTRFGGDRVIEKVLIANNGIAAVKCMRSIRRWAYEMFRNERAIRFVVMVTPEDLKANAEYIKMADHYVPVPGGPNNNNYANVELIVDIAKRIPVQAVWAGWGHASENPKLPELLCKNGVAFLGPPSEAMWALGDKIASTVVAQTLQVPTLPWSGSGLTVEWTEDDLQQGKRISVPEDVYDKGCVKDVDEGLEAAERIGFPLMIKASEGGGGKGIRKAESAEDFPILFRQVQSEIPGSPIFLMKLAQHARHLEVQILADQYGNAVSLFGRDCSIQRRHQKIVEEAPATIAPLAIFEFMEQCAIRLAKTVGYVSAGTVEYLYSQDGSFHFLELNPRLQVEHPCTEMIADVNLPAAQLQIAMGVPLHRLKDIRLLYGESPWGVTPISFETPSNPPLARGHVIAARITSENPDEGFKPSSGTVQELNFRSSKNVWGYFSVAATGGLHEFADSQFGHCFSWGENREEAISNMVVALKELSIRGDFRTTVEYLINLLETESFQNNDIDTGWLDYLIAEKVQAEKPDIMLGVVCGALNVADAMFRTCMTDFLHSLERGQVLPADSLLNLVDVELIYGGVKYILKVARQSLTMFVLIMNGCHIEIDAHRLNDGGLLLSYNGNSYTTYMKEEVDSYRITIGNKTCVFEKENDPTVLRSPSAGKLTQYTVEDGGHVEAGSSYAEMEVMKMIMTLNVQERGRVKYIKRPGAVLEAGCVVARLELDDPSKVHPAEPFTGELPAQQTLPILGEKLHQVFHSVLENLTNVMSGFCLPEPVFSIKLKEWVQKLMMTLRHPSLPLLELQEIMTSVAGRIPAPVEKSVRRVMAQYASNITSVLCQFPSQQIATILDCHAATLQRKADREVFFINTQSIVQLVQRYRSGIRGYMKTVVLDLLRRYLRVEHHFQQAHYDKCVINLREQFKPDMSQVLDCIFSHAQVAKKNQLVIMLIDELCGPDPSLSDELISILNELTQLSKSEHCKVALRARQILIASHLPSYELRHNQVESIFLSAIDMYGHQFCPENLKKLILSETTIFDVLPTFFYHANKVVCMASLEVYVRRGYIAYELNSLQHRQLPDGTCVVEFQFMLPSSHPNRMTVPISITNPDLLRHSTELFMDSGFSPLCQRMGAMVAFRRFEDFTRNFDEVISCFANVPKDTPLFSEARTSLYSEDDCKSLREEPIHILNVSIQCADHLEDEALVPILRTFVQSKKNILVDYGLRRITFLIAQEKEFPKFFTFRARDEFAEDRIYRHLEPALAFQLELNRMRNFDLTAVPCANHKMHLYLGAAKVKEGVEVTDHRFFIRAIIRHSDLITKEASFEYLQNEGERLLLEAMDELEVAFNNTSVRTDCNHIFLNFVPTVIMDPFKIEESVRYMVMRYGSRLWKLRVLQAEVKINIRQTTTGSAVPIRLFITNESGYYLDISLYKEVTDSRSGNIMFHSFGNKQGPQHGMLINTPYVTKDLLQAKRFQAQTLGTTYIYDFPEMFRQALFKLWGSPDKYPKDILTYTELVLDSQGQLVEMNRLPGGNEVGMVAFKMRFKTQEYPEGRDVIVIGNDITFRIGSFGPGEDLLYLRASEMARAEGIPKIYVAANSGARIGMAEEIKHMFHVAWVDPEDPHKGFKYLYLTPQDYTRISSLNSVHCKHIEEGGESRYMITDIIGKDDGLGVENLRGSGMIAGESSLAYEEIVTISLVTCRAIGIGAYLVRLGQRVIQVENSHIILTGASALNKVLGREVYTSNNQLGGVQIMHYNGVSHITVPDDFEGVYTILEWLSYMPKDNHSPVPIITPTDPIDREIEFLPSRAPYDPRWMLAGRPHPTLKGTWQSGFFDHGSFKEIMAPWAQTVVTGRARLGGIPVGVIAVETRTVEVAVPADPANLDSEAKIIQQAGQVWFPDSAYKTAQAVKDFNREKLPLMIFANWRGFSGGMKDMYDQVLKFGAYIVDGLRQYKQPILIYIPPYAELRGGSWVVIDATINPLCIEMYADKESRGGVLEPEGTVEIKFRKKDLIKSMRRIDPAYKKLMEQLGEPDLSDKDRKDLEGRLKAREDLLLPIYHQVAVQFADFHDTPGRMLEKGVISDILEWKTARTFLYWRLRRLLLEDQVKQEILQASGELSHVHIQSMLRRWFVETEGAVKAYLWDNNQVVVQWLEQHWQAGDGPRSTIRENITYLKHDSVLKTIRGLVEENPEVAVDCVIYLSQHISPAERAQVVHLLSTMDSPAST
Description: The detailed procedure is as follows. […] 10 μL ADP glo reagent was added. […] 20 μL kinase detection reagent was added.

[4] = growth inhibition at 48 hours vs 2% DMSO control, read-out: Concentration at 90% Inhibition Pc
[5] = growth inhibition vs 2% DMSO control at 48 hours, read-out: Concentration at 90% Inhibition Pc
[6] = Botrtyis cinerea, growth inhibition at 48 hours vs 2% DMSO control, read-out: Concentration at 90% Inhibition Bc
[7] = Botrtyis cinerea, growth inhibition vs 2% DMSO control at 48 hours, read-out: Concentration at 90% Inhibition Bc
[8] = mycelial plugs, growth inhibition at 48 hours vs 2% DMSO control, read-out: Concentration at 90% Inhibition Rs
[9] = mycelial plugs, growth inhibition vs 2% DMSO control at 48 hours, read-out: Concentration at 90% Inhibition Rs
[10] = growth inhibition at 48 hours vs 2% DMSO control, read-out: Concentration at 90% Inhibition Fv
[11] = growth inhibition vs 2% DMSO control at 48 hours, read-out: Concentration at 90% Inhibition Fv
[12] = Septoria tritici, growth inhibition at 48 hours vs 2% DMSO control, read-out: Concentration at 90% Inhibition St
[13] = Septoria tritici, growth inhibition vs 2% DMSO control at 48 hours, read-out: Concentration at 90% Inhibition St
[14] = Fusarium moniliforme, growth inhibition at 48 hours vs 2% DMSO control
[15] = Fusarium moniliforme, growth inhibition vs 2% DMSO control at 48 hours
[16] = Table 3a, ATCC 22019, 3 replicates, MIC recorded at 48 h, read-out: MIC, C. parapsilosis ATCC 22019
[17] = Table 3b (additional results), ATCC 22019, 3 replicates, MIC recorded at 48 h, read-out: MIC, C. parapsilosis ATCC 22019
[18] = Table 3a, ATCC 6258, 3 replicates, MIC recorded at 48 h, read-out: MIC, C. krusei ATCC 6258
[19] = Table 3b (additional results), ATCC 6258, 3 replicates, MIC recorded at 48 h, read-out: MIC, C. krusei ATCC 6258

Compound	IC90 [1, 4] [µg/mL]	IC90 [1, 5] [µg/mL]	IC90 (Botrtyis cinerea (Bc); [6]) [µg/mL]	IC90 (Botrtyis cinerea (Bc); [7]) [µg/mL]	IC90 (Rhizoctonia solani (Rs); [8]) [µg/mL]	IC90 (Rhizoctonia solani (Rs); [9]) [µg/mL]	IC90 [2, 10] [µg/mL]	IC90 [2, 11] [µg/mL]	IC90 (Septoria tritici (St); [12]) [µg/mL]	IC90 (Septoria tritici (St); [13]) [µg/mL]	IC90 [3, 14] [µg/mL]	IC90 [3, 15] [µg/mL]	MIC (C. parapsilosis; [16]) [µg/mL]	MIC (C. parapsilosis; [17]) [µg/mL]	IC50 (fungal (fACC2); Table 2a) [nM]	IC50 (fungal (fACC2); Table 2b, additional results) [nM]	MIC (C. krusei; [18]) [µg/mL]	MIC (C. krusei; [19]) [µg/mL]	IC50 (human (hACC2); Table 2a) [nM]	IC50 (human (hACC2); Table 2b, additional results) [nM]	further results
C=CCN(C)C(=O)C(C)(C)n1c(=O)c2c(C)c(-n3nccn3)sc2n(C[C@H](OC2CCOCC2)c2cc(F)ccc2OC)c1=O [Compound I-71, (R)—N-allyl-2-(1-(2-(5-fluoro-2-methoxyphenyl)-2-((tetrahydro-2H-pyran-4-yl)oxy)ethyl)-5-methyl-2,4-dioxo-6-(2H-1,2,3-triazol-2-yl)-1,4-dihydrothieno[2,3-d]pyrimidin-3(2H)-yl)-N,2-dimethylpropanamide]	> 50	> 50	0.4 (≈ 0.624 µM)	0.4 (≈ 0.624 µM)	0.08 (≈ 0.125 µM)	0.08 (≈ 0.125 µM)	2 (≈ 3.12 µM)	2 (≈ 3.12 µM)	> 50	> 50	0.08 (≈ 0.125 µM)	0.08 (≈ 0.125 µM)	0.25 to 1 (≈ 0.39 to 1.56 µM)	1.01 to 2 (≈ 1.58 to 3.12 µM)	1 to 5	1 to 5	0.25 to 1 (≈ 0.39 to 1.56 µM)	0.25 to 1 (≈ 0.39 to 1.56 µM)	1 to 5	1 to 5	–
C=CCO[C@@H](Cn1c(=O)n(C(C)(C)C(=O)NC(C)C)c(=O)c2c(C)c(-n3nccn3)sc21)c1cc(F)ccc1OC [Compound I-72, (R)-2-(1-(2-(allyloxy)-2-(5-fluoro-2-methoxyphenyl)ethyl)-5-methyl-2,4-dioxo-6-(2H-1,2,3-triazol-2-yl)-1,4-dihydrothieno[2,3-d]pyrimidin-3(2H)-yl)-N-isopropyl-2-methylpropanamide]	–	–	–	–	–	–	–	–	–	–	–	–	–	–	1 to 5	1 to 5	–	–	1 to 5	1 to 5	IC90 ([1]; read-out: Concentration at 90% Inhibition Pc, Phytophthora capsici, growth inhibition at 48 hours vs 2% DMSO control): > 50 µg/mL; IC90 ([1]; read-out: Concentration at 90% Inhibition Pc, Phytophthora capsici, growth inhibition vs 2% DMSO control at 48 hours): > 50 µg/mL; IC90 (Botrtyis cinerea (Bc); read-out: Concentration at 90% Inhibition Bc, Botrtyis cinerea, growth inhibition at 48 hours vs 2% DMSO control): 2 µg/mL (≈ 3.42 µM); IC90 (Botrtyis cinerea (Bc); read-out: Concentration at 90% Inhibition Bc, Botrtyis cinerea, growth inhibition vs 2% DMSO control at 48 hours): 2 µg/mL (≈ 3.42 µM); IC90 (Rhizoctonia solani (Rs); read-out: Concentration at 90% Inhibition Rs, Rhizoctonia solani, mycelial plugs, growth inhibition at 48 hours vs 2% DMSO control): 0.4 µg/mL (≈ 0.684 µM); IC90 (Rhizoctonia solani (Rs); read-out: Concentration at 90% Inhibition Rs, Rhizoctonia solani, mycelial plugs, growth inhibition vs 2% DMSO control at 48 hours): 0.4 µg/mL (≈ 0.684 µM); IC90 ([2]; read-out: Concentration at 90% Inhibition Fv, Fusarium virguliforme, growth inhibition at 48 hours vs 2% DMSO control): 0.4 µg/mL (≈ 0.684 µM); IC90 ([2]; read-out: Concentration at 90% Inhibition Fv, Fusarium virguliforme, growth inhibition vs 2% DMSO control at 48 hours): 0.4 µg/mL (≈ 0.684 µM); IC90 (Septoria tritici (St); read-out: Concentration at 90% Inhibition St, Septoria tritici, growth inhibition at 48 hours vs 2% DMSO control): > 50 µg/mL; IC90 (Septoria tritici (St); read-out: Concentration at 90% Inhibition St, Septoria tritici, growth inhibition vs 2% DMSO control at 48 hours): > 50 µg/mL; Concentration at 90% Inhibition Fm [3, 14]: AA (compound concentration of 0.08 ppm at 90% inhibition of fungal pathogens); IC90 [3]: 0.08 µg/mL (≈ 0.137 µM); MIC (C. parapsilosis; read-out: MIC, C. parapsilosis ATCC 22019, Table 3a, 3 replicates, MIC recorded at 48 h): 1.1 to 2 µg/mL (≈ 1.88 to 3.42 µM); MIC (C. parapsilosis; read-out: MIC, C. parapsilosis ATCC 22019, Table 3b (additional results), 3 replicates, MIC recorded at 48 h): 1.01 to 2 µg/mL (≈ 1.73 to 3.42 µM); MIC (C. krusei; read-out: MIC, C. krusei ATCC 6258, Table 3a, 3 replicates, MIC recorded at 48 h): 0.25 to 1 µg/mL (≈ 0.428 to 1.71 µM); MIC (C. krusei; read-out: MIC, C. krusei ATCC 6258, Table 3b (additional results), 3 replicates, MIC recorded at 48 h): 0.25 to 1 µg/mL (≈ 0.428 to 1.71 µM)
COc1ccc(F)cc1[C@H](Cn1c(=O)n(C(C)(C)C(=O)NC2CC2)c(=O)c2c(C)c(-n3nccn3)sc21)OC(C)C [Compound I-73, (R)—N-cyclopropyl-2-(1-(2-(5-fluoro-2-methoxyphenyl)-2-isopropoxyethyl)-5-methyl-2,4-dioxo-6-(2H-1,2,3-triazol-2-yl)-1,4-dihydrothieno[2,3-d]pyrimidin-3(2H)-yl)-2-methylpropanamide]	> 50	> 50	2 (≈ 3.42 µM)	2 (≈ 3.42 µM)	0.4 (≈ 0.684 µM)	0.4 (≈ 0.684 µM)	0.4 (≈ 0.684 µM)	0.4 (≈ 0.684 µM)	> 50	> 50	0.08 (≈ 0.137 µM)	0.08 (≈ 0.137 µM)	0.25 to 1 (≈ 0.428 to 1.71 µM)	1.01 to 2 (≈ 1.73 to 3.42 µM)	1 to 5	1 to 5	0.25 to 1 (≈ 0.428 to 1.71 µM)	0.06 to 0.249 (≈ 0.103 to 0.426 µM)	5 to 10	5 to 10	–
